Measurements published in patent publication US6635621B1, “Cysteine protease inhibitors” (Naeja Pharmaceutical Inc., priority 1999, dated 2003).

Key:
[1] = biological target: rat cathepsin B (Rattus norvegicus, UniProt P00787); assay: In vitro assay for inhibition of cathepsin B; format: biochemical; settings: r rat cathepsin B, substrate N-CBZ-Phe-Arg-AMC, pH 5.1, 10 min incubation at room temperature
Protocol: In Vitro Assay Procedure for Cathepsin B
The compounds of formula I were tested for inhibition of cathepsin B using the known method (A. J. Barret et al., Biochem. J. 1982, 201, 189-198). To a 170 μl of enzyme-buffer mixture (enzyme: r rat cathepsin B, diluted to give approximate 10 F units/min, buffer: 56 mM sodium acetate, 1.124 mM EDTA, 10 mM DTT, pH 5.1) a 10 μL of inhibitor (dissolved in DMSO) was added. After 10 min of incubation at room temperature, a 20 μl of 5 mM substrate (N-CBZ-Phe-Arg-AMC, dissolved in DMSO) was added to initiate reaction. Reading is followed up for 10 min at the fluoroscan reader (excitation at 380 nm emission at 460 nm).
(§1) A plot of percentage of inhibition vs inhibitor concentration is obtained, and IC50 is determined using a linear regression calculations (concentration of inhibitor which will give 50% inhibition).

[2] = biological target: rat cathepsin L (Rattus norvegicus, UniProt P07154); assay: In vitro assay for inhibition of cathepsin L; format: biochemical; settings: r rat cathepsin L, substrate N-CBZ-Phe-Arg-AMC, pH 5.0, 10 min incubation at room temperature
Protocol: In Vitro Assay Procedure for Cathepsin L
To a 170 μl of enzyme-buffer mixture (enzyme: r rat cathepsin L, diluted to give approximate 15 F units/min, buffer: 58.8 mM sodium citrate, 1.18 mM EDTA, 235 mM sodium chloride, 5 mM […], pH 5.0) a 10 μL of inhibitor (dissolved in DMSO) was added. After 10 min of incubation at room temperature, a 20 μl of 1 mM substrate (N-CBZ-Phe-Arg-AMC, dissolved in DMSO) was added to initiate reaction. Reading is followed up for 10 min at the fluoroscan reader (excitation at 380 nm emission at 460 nm).
as §1

[3] = biological target: T1, cathepsin K (Homo sapiens, UniProt P43235); assay: In vitro assay for inhibition of cathepsin K; format: biochemical; settings: r cathepsin K, substrate N-CBZ-Phe-Arg-AMC, pH 5.5, 10 min incubation at room temperature
T1 sequence (P43235 115-329): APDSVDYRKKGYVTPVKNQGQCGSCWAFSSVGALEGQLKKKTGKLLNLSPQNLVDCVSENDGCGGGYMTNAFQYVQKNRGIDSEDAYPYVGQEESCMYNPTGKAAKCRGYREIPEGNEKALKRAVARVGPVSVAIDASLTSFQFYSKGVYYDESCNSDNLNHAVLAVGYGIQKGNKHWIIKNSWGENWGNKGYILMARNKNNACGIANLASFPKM
Protocol: In Vitro Assay Procedure for Cathepsin K
(§2) To a 170 μl of enzyme-buffer mixture (enzyme: r cathepsin K, diluted to give approximate 30 F units/min, buffer: 100 mM sodium acetate, 5 mM EDTA, 20 mM L-cysteine, 0.01% Brij, pH 5.5) a 10 μL of inhibitor (dissolved in DMSO) was added. After 10 min of incubation at room temperature, a 20 μl of 2.7 mM substrate (N-CBZ-Phe-Arg-AMC, dissolved in DMSO) was added to initiate reaction. Reading is followed up for 10 min at the fluoroscan II plate reader (excitation at 380 nm emission at 460 nm).
as §1

[4] = biological target: cathepsin S (Homo sapiens, UniProt P25774); assay: In vitro assay for inhibition of cathepsin S; format: biochemical; settings: r cathepsin S, substrate N-CBZ-Val-Val-Arg-AMC, pH 6.5, 10 min incubation at room temperature
Protocol: In Vitro Assay Procedure for Cathepsin S
as §2, with “S,” for “K,”, “phosphate, 1 mM EDTA,” for “acetate,”, “DTT,” for “EDTA, 20 mM L-cysteine,”, “6.5)” for “5.5)”, “1.2” for “2.7”, “(N-CBZ-Val-Val-Arg-AMC,” for “(N-CBZ-Phe-Arg-AMC,”
as §1

Chain of rat cathepsin B (P00787 80-333): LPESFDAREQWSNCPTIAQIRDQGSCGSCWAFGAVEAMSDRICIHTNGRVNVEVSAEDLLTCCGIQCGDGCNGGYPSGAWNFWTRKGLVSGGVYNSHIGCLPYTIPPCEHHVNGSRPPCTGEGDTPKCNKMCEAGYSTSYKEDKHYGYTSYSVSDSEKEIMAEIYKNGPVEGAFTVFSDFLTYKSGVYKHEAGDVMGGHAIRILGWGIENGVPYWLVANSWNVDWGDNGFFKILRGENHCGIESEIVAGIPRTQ
Chain of cathepsin S (P25774 115-331, species assumed): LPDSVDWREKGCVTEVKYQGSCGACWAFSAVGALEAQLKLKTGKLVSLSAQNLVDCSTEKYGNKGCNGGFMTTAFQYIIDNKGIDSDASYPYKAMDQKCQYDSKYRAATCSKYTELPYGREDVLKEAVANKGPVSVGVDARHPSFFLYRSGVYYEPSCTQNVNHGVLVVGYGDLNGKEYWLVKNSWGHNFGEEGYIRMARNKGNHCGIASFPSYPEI
Chain of rat cathepsin L (P07154 114-334): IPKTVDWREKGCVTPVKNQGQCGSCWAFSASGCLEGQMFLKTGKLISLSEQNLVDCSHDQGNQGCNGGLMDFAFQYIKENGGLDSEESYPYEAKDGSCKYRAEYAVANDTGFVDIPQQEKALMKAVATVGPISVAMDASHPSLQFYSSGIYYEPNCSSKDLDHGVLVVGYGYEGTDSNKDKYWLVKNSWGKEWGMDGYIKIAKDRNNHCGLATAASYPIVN

| SMILES | IC50 [1] [µM] | IC50 [2] [µM] | IC50 [3] [µM] | IC50 [4] [µM] | melting point [°C] |
| --- | --- | --- | --- | --- | --- |
| CC(C)C[C@H](NC(=O)OCc1ccccc1)C(=O)N/C(=C\N1CCC(NC(=O)OC(C)(C)C)C1)C(N)=O (stereo partly drawn) [Example 18, 2-(2S-2-Benzyloxycarbonylamino-2-isopropylmethyl-acetamido)-3-(3-tert-butoxycarbonylamino-pyrrolidino)-acrylamide] | 1.9 | 0.12 | 0.0096 | 0.039 | 140 to 142 |
| NC=C(NC(=O)[C@H](CC1CCCCC1)NC(=O)OCc1ccccc1)C(N)=O [Example 2, 2-(2S-2-Benzyloxycarbonylamino-2-cyclohexylmethyl-acetamido)-3-amino-acrylamide] | 1.17 | 0.072 | 1.78 | 0.026 | 80 to 85 |
| CC(=O)N/C=C(/NC(=O)[C@H](CC1CCCCC1)NC(=O)OCc1ccccc1)C(N)=O [Example 19a, (2E)-(2S-2-Benzyloxycarbonylamino-2-cyclohexymethyl-acetamido)-3-acetamido-acrylamide] | > 58 | > 58 | > 58 | 1.86 | 140 to 142 |
| NC(=O)C(NC(=O)[C@H](Cc1ccccc1)NC(=O)CCc1ccccc1)C(O)O (stereo partly drawn) [Example 14, 2-[2S-2-(3-Phenylpropionoylamino)-2-benzyl-acetamido]-3,3-dihydroxy-propionamide] | 0.98 | 0.004 | 1.13 | 0.004 | 105 to 110 |
| CC(C)C[C@H](NC(=O)OCc1ccccc1)C(=O)N/C(=C/O)C(N)=O [Example 15, 2-(2S-2-Benzyloxycarbonylamino-2-isopropylmethyl-acetamido)-3-hydroxy-acrylamide] | 9.5 | 0.17 | 0.018 | 0.075 | 105 to 115 |
| NC=C(NC(=O)[C@H](Cc1ccccc1)NC(=O)CCc1ccccc1)C(N)=O [Example 4, 2-[2S-2-(3-Phenylpropionoyl)amino-2-benzyl-acetamido]-3-amino-acrylamide] | 2.63 | 0.015 | 1.2 | 0.0087 | 75 to 80 |
| CC(C)C[C@H](NC(=O)OCc1ccccc1)C(=O)N/C(=C\N1CCCCC1)C(N)=O [Example 9, 2-(2S-2-Benzyloxycarbonylamino-2-isopropylmethyl-acetamido)-3-piperidino-acrylamide] | 0.89 | 0.062 | 0.014 | 0.05 | 99 to 103 |
| CC(C)C[C@H](NC(=O)OCc1ccccc1)C(=O)NC(C(N)=O)C(O)O (stereo partly drawn) [Example 11, 2-(2S-2-Benzyloxycarbonylamino-2-isopropylmethyl-acetamido)-3,3-dihydroxy-propionamide] | 2.4 | 0.11 | 0.014 | 0.015 | 86 to 90 |
| CC(C)C[C@H](NC(=O)OCc1ccccc1)C(=O)NC(=CN)C(N)=O [Example 1, 2-(2S-2-Benzyloxycarbonylamino-2-isopropylmethyl-acetamido)-3-amino-acrylamide] | 4.35 | 0.094 | 0.011 | 0.069 | 80 to 90 |

Further compounds by falling IC50 [1], results first:

| IC50 [1] [µM] | IC50 [2] [µM] | IC50 [3] [µM] | IC50 [4] [µM] | melting point [°C] | SMILES |
| --- | --- | --- | --- | --- | --- |
| 37.1 | 2.36 | 0.33 | 6.9 | 199 to 200 | CC(C)C[C@H](NC(=O)OCc1ccccc1)C(=O)NC(=CNc1ccccc1)C(N)=O [Example 8, 2-(2S-2-Benzyloxycarbonylamino-2-isoproplmethyl-acetamido)-3-phenylamino-acrylamide] |
| 2.28 | 0.064 | 0.0031 | 0.061 | 115 to 120 | CC(C)C[C@H](NC(=O)OCc1ccccc1)C(=O)NC(=CNCc1ccccc1)C(N)=O [Example 5, 2-(2S-2-Benzyloxycarbonylamino-2-isopropylmethyl-acetamido)-3-benzylamino-acrylamide] |
| 1.96 | 0.23 | 0.012 | 0.18 | 89 to 92 | CC(C)C[C@H](NC(=O)OCc1ccccc1)C(=O)NC(=CNCCO)C(N)=O [Example 7, 2-(2S-2-Benzyloxycarbonylamnino-2-isopropylmnethyl-acetamido)-3-(2-hydroxyethylamnino)-acrylamide] |
| 1.42 | 0.0055 | 0.23 | 0.26 | 127 to 135 | NC=C(NC(=O)[C@H](Cc1ccccc1)NC(=O)OCc1ccccc1)C(N)=O [Example 3, 2-(2S-2-Benzyloxycarbonylamino-2-benzyl-acetamido)-3-amino-acrylamide] |
| 0.37 | 0.075 | 0.003 | 0.05 | 120 to 130 | CC(C)C[C@H](NC(=O)OCc1ccccc1)C(=O)NC(=CN1CCOCC1)C(N)=O [Example 6, 2-(2S-2-Benzyloxycarbonylamino-2-isopropylmethyl-acetamido)-3-(morpholin-4-yl)-acrylamide] |
